# Experimental data reported in PubChem BioAssay (NCI).
#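 Five concentrations, 48 hours, 96-well plates. The concentration for 50% growth inhibition is given as GI50. The concentration for full growth arrest is given as TGI.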
# Columns and labels:
# Assay in all cases: DTP human tumour cell line panel, 48 h
# NCI-H23 lung = system: NCI-H23 lung
# M14 melanoma = system: M14 melanoma
# SF-539 CNS = system: SF-539 CNS
# HT29 colon = system: HT29 colon
# OVCAR-5 ovarian = system: OVCAR-5 ovarian
# OVCAR-4 ovarian = system: OVCAR-4 ovarian
# SR leukemia = system: SR leukemia
# OVCAR-3 ovarian = system: OVCAR-3 ovarian
# U251 CNS = system: U251 CNS
# HOP-92 NSCLC = system: HOP-92 NSCLC
Compound,GI50 (NCI-H23 lung) [µM],TGI (NCI-H23 lung) [µM],GI50 (M14 melanoma) [µM],TGI (M14 melanoma) [µM],GI50 (SF-539 CNS) [µM],TGI (SF-539 CNS) [µM],GI50 (HT29 colon) [µM],TGI (HT29 colon) [µM],GI50 (OVCAR-5 ovarian) [µM],TGI (OVCAR-5 ovarian) [µM],GI50 (OVCAR-4 ovarian) [µM],TGI (OVCAR-4 ovarian) [µM],GI50 (SR leukemia) [µM],TGI (SR leukemia) [µM],GI50 (OVCAR-3 ovarian) [µM],TGI (OVCAR-3 ovarian) [µM],GI50 (U251 CNS) [µM],TGI (U251 CNS) [µM],TGI (HOP-92 NSCLC) [µM],GI50 (HOP-92 NSCLC) [µM]
O=[N+]([O-])c1cccc([I+]c2ccccc2)c1,10.9,31.2,11.1,33.5,10.8,24.3,11.9,31.2,17.7,38.4,7.13,36,3.16,25.9,11.3,26.8,6.39,20.3,–,–
O=c1[nH]c(-c2ccc([N+](=O)[O-])cc2)nc2ccc(Cl)cc12,–,> 100,–,–,–,> 100,–,> 100,–,> 100,–,–,–,–,–,–,–,> 100,84.2,–
C[C@H]1CCC2C(CN3CCCCC3)C(=O)OC2[C@]2(C)C(=O)CC(N3CCCCC3)C12O (stereo partly drawn),–,25.9,–,–,–,7.93,–,16.4,–,22.6,–,–,–,15.8,–,14.7,–,24.5,7.54,–
Cc1cc(C)c(C2=NO[C@@H]3C(=O)N(c4ccc(Cc5ccc(N6C(=O)[C@H]7C(c8c(C)cc(C)cc8C)=NO[C@H]7C6=O)cc5)cc4)C(=O)[C@H]23)c(C)c1,–,> 100,–,> 100,–,> 100,–,> 100,–,> 100,–,> 100,–,–,–,> 100,–,–,> 100,–
COc1cc(/C=C2\CC3C4CCC5=CC(=O)CC[C@]5(C)C4CC[C@]3(C)C2=O)ccc1OCCN1CCCCC1 (stereo partly drawn),5.33,25.7,1.87,3.46,–,–,3.37,64.8,8.26,28.5,8.35,92.2,–,–,1.83,4.59,3.2,11.2,8.34,1.45
C1C[S][Ge]2([S]CCS1)[S]CCSCC[S]2,> 100,> 100,> 100,> 100,> 100,> 100,–,–,–,–,> 100,> 100,> 100,> 100,–,–,–,–,> 100,> 100
O=C(O)C1C2CCC(O2)C1C(=O)NCc1cccnc1 (stereo not drawn),–,> 100,–,> 100,–,> 100,–,> 100,–,> 100,–,> 100,–,> 100,–,> 100,–,> 100,–,–
C=C(C)[C@@H]1CC[C@]2(C(=O)N3CCN(C)CC3)CC[C@]3(C)[C@H](CC[C@@H]4[C@@]5(C)CC[C@H](O)C(C)(C)[C@@H]5CC[C@]43C)[C@@H]12,1.92,3.82,1.89,3.76,1.69,3.12,1.41,3.09,1.75,3.28,1.77,3.37,–,–,1.9,3.49,–,–,3.42,1.69
Cc1cc(N(CCC#N)CCC#N)ccc1CC1N=C(c2ccccc2)OC1=O (stereo not drawn),–,> 100,–,> 100,–,> 100,–,> 100,–,> 100,–,> 100,–,–,–,> 100,–,> 100,> 100,–
CN(CCCCN)c1ccc2c(=O)[nH][nH]c(=O)c2c1,–,5.1,–,> 100,–,> 100,–,> 100,–,> 100,–,> 100,–,–,–,> 100,–,> 100,> 100,–
Cc1cc2c(C)nn(Cc3ccccc3Cl)c2c(C#N)c1C,–,> 100,–,–,–,> 100,–,> 100,–,> 100,–,–,–,> 100,–,> 100,–,> 100,> 100,–
O=C(CC(=O)N1N=C(c2ccccc2)C(N=Nc2ccccc2Cl)C1=O)Nc1ccccc1Cl (stereo not drawn),–,> 100,–,> 100,–,> 100,–,44.6,–,> 100,–,63.2,–,54.5,–,81.3,–,> 100,–,–
NNc1ncnc2cccc(Cl)c12,–,> 100,–,> 100,–,> 100,–,> 100,–,> 100,–,> 100,–,> 100,–,> 100,–,> 100,–,–
O=Cc1cn(S(=O)(=O)c2ccccc2)c2ccccc12,–,85,–,> 100,–,> 100,–,> 100,–,> 100,–,> 100,–,67.1,–,> 100,–,> 100,–,–
C/C(CC(=O)Nc1ccc([N+](=O)[O-])cc1)=N\Nc1ccc([N+](=O)[O-])cc1[N+](=O)[O-],–,> 100,–,> 100,–,> 100,–,> 100,–,> 100,–,–,–,–,–,> 100,–,> 100,> 100,–
COc1ccc(Nc2ncccc2C(=O)NCc2cn(Cc3cccc(Oc4ccccc4)c3)nn2)c(OC)c1,2.18,> 100,1.37,> 100,2.43,19.2,1.47,13.5,6.72,> 100,5.27,> 100,–,–,1.11,4.78,3.19,> 100,> 100,36.1
Oc1[nH]c2ccccc2c1/C=c1/ccc2c(c1)N=C(c1cc(F)cc(F)c1)N=2,4.13,17.7,2.7,13.6,13.6,31.4,3.6,16.2,16.8,36.4,3.33,13.5,2.43,9.21,5,17.9,3.89,17.6,–,–
CN1c2ccccc2S(=O)(=O)n2c(COc3ccccc3)nnc21,–,> 100,–,> 100,–,> 100,–,> 100,–,> 100,–,> 100,–,–,–,> 100,–,> 100,> 100,–
CN(CC1NCCCC1O)C12CC3CC(CC(C3)C1)C2 (stereo not drawn),–,> 100,–,> 100,–,> 100,–,> 100,–,> 100,–,> 100,–,–,–,> 100,–,> 100,> 100,–
